A short description of assay [1]: Concentration required to 10% of controls reduce cell survival under hypoxic conditions using the UV4 aerobic cells. Type of assay: functional, Cricetulus griseus.
Assay [2] can be described thus: Aerobic cytotoxic activity was evaluated by the growth inhibition of AA8 (chinese hamster) aerobic cells. Type of assay: functional, cell-based. Particulars: Cricetulus griseus, CHO-AA8.
A short description of assay [3]: Aerobic cytotoxic activity was evaluated by the growth inhibition of UV4 aerobic cells. Particulars: Cricetulus griseus. Type of assay: functional, cell-based.
The test system of assay [4] is SK-OV-3. In words: (§1) Aerobic cytotoxic activity was evaluated by the growth inhibition of SKOV (human ovarian cancer line) aerobic cells. Type of assay: functional.
The test system of assay [5] is SK-OV-3. The description is as §1. Type of assay: functional, cell-based.
The nature of assay [6]: Concentration required to reduce cell survival tunder hypoxic conditions using the UV4 aerobic cells. Type of assay: functional, Cricetulus griseus.

For the molecule `CN(C)CCNC(=O)c1cc(N(CCCl)CCCl)c([N+](=O)[O-])cc1[N+](=O)[O-]`, the CT10 in assay [1] worked out at 400 µM; in the assay on SK-OV-3 [4], 1300 µM. Also, the IC50 in assay [2] worked out at 220 µM; in assay [3] it was 3.1 µM.

Turning to `NC(=O)c1cc(N(CCCl)CCCl)c([N+](=O)[O-])cc1[N+](=O)[O-]`, the IC50 was 1450 µM in assay [2], more than 1000 µM in the assay on SK-OV-3 [5] and 870 µM in assay [3]. In assay [6], this molecule displayed a CT10 of 95 µM.

The values are drawn from ChEMBL document CHEMBL1130873 (Bioorg Med Chem Lett, 1998).
